Test results published in patent publication US6548530B1, “CBI analogs of CC-1065 and the duocarmycins” (The Scripps Research Institute, priority 1995, dated 2003).
Where two headings read alike, the source gives them in different places.

Experiments:
L1210 [1] = conditions: cited from earlier work
[2] = in vivo; cited from earlier work
[3] = system: double-stranded DNA (clone w794); experiment: DNA alkylation of 5′ end-labeled duplex DNA (thermally-induced strand cleavage, PAGE, autoradiography); type: biochemical; conditions: for DNA alkylation efficiency, fold less efficient than (+)-CBI-CDPI1 (26): natural enantiomers
Procedure: FIG. 21 illustrates the thermally-induced strand cleavage of double-stranded DNA (144 bp, nucleotide no. 138-5238, clone w794) after 24 h incubation of agent-DNA at 4° C. followed by removal of unbound agent and 30 inutes incubation at 100° C.; denaturing 8% polyacrylamide gel and autoradiography. Lanes 1-4, Sanger G,C,A, and T sequencing reactions; lane 5, control labeled w794 DNA; lanes 6-8, (+)-CPI-indole2 ((+)-4, 1×10^−4-1×10^−6 M); lanes 9-11, (+)-CBI-indole2 ((+)-27, 1×10^−5-1×10^−7 M).
FIG. 22 illustrates the thermally-induced strand clealvage of 5′ end-labeled duplex DNA (clone w794, 144 bp, nucleotide no 138-5238). Incubation of agent-DNA at 25° C. (24 h) followed by removal of unbound agent and 30 min thermolysis at 100° C., denaturing 8% PAGE, and autoradiography. Lanes 1-2, ent-(−)-duocarmycin SA ((−)-2, 1×10^−6 and 1×10^−7 M); lanes 3-5, (+)-duocarmycin SA, ((+)-2, 1×10^−6-1×10^−8 M); lanes 6-9, G, C, A and T sequencing reactions; lane 10, control labeled w794 DNA; lanes 11-13, (+)-CBI-TMI ((+)-29, 1×10^−6-1×10^−8 M); lanes 14-15, ent-(−)-CBI-TMI ((−)-29, 1×10^−5 and 1×10^−6 M).
FIGS. 23A-23B represent the following: Top: Plot of % integrated optical density (% IOD) versus time established through autoradiography of 5′ ^32P end-labeled DNA and used to monitor the relative rate of w794 alkylation at the 5′-AATTA high affinity site for (+)-CBI-indole2 (27) and (+)-CPI-indole2 (4); 37° C., 0-5 d, 1×10^−5 M agent. Bottom: Plot of % integrated optical density (% IOD) versus time established through autoradiography of 5′ ^32P end-labeled DNA and used to monitor the relative rate of w794 alkylation at the 5′-AATTA high affinity site for (+)-duocarmycin SA (2) and (+)-CBI-TMI (29); 4° C., 0-24 h, 1×10^−6 M agent.
DNA Alkylation Studies. General procedures, the preparation of singly ^32P 5′ end-labeled double-stranded DNA, the agent binding studies, gel electrophoresis, and autoradiography were conducted according to procedures described in full detail elsewhere. (Boger et. al Tetrahedron 1991, 47, 2661). Eppendorf tubes containing the 5′ end-labeled DNA (9 μL, w794 and w836) in TE buffer (10 mM Tris, 1 mM EDTA, pH 7.5) were treated with the agent DIMETHYLSULFOXIDE (1 μL at the specified concentration). The solution was mixed by vortexing and brief centrifugation and subsequently incubated at 25° C. for 3 days. The covalently modified DNA was separated from unbound agent by Ethanol precipitation and resuspended in TE buffer (10 μL). The solution of DNA in an Eppendorf tube sealed with parafilm was heated at 100° C. for 30 min to induce cleavage at the alkylation sites, allowed to cool to 25° C. and centrifuged. Formamide dye (0.33% xylene cyanol FF, 0.03% bromophenol blue, 8.7% Na2EDTA 250 mM) was added (5 μL) to the supernatant. Prior to electrophoresis, the sample was denatured by warming at 100° C. for 5 min, placed in an ice bath, and centrifuged, before the supernatant (3 μL) was loaded directly onto the gel. Sanger dideoxynucleotide sequencing reactions were run as standards adjacent to the reaction samples. Polyacrylamide gel electrophoresis (PAGE) was run on an 8% sequencing gel under denaturing conditions (8 M urea) in TBE buffer (100 mM Tris, 100 mM boric acid, 0.2 mM Na2EDTA) followed by autoradiography.
DNA Alkylation Studies of 2-5: Selectivity and Efficiency. Eppendorf tubes containing singly ^32P 5′-end-labeled double-stranded DNA^10 (9 μL) in TE buffer (10 mM Tris, 1 mM EDTA, pH 7.5) were treated with the agents 190-196 in DIMETHYLSULFOXIDE (1 μL, at the specified concentrations). The solutions were mixed by vortexing and brief centrifugation and subsequently incubated at 4° C. for 24 h. The covalently modified DNA was separated from unbound agent by Ethanol precipitation of the DNA. The Ethanol precipitations were carried out by adding t-RNA as a carrier (1 μL, 10 1μg/μL), a buffer solution containing salt (0.1 volume, 3 M NaOAc in TE) and −20° C. Ethanol (2.5 volumes). […]

L1210 [4] = experiment: in vitro cytotoxic activity (L1210)
solubility properties = type: physicochemical; conditions: polar protic or aprotic solvents, water, nonpolar solvents
[5] = (+)-enantiomer; cited from earlier work
[6] = Mus musculus, L1210, read-out: cytotoxic potency

## COc1c(O)c2c(c3cc(C(=O)N4CCc5c4c(O)c(OC)c4[nH]c(C(=O)N6CC7CC78C6=CC(=O)c6[nH]cc(C)c68)cc54)[nH]c13)CCN2C(N)=O (stereo not drawn) [ent-(−)-CC-1065]
L1210 [1]
  cytotoxicity compared with natural (+)-CC-1065: equally cytotoxic
[2]
  delayed toxicity: has not been observed

## NC(=O)N1CCc2c1ccc1oc(C(=O)N3C[C@H]4CC45C3=CC(=O)c3ccccc35)nc21 (some centres unmarked) [Compound 62, CBI-CDPBO1]
[3]
  DNA alkylation efficiency, fold less efficient than (+)-CBI-CDPI1 (26): approximately 100 ×
L1210 [4]; [6]
  IC50: 0.5 to 1 nM

## Cl.NNC(=O)N1CC(CCl)c2c1cc(O)c1ccccc21 (centres unmarked) [Compound 73, 1-(Chloromethyl)-3-(hydrazino)carbonyl-5hydroxy-1,2-dihydro-3H-benz[e]indole hydrochloride]
L1210 [4]
  in vitro cytotoxic activity compared with N-BOC-CBI (9): more potent
L1210 [4]; free semicarbazide versus 72
  in vitro cytotoxic activity, fold more potent than tert-butylcarbazate precursor 72: ca. 100 ×
L1210 [4]; seco precursor with free amine
  in vitro cytotoxic activity, fold less potent than (+)-CC-1065: 100 ×

## COc1cc2cc(C(=O)N3CC4CC45C3=CC(=O)c3ccccc35)[nH]c2c(OC)c1OC (centres unmarked) [Compound 29, CBI-TMI]
[3]; 5′-AATTA high affinity site of w794 DNA, 4° C., 0-24 h, 1×10^−6 M agent
  relative rate of DNA alkylation k(29)/k(2): 0.9

## (+)-CPI-PDE-I1 [reference compound]
L1210 [4]; L1210
  IC50: 0.02 nM

## COc1c(O)c2c(c3cc(C(=O)N4CCc5c4c(O)c(OC)c4[nH]c(C(=O)N6C[C@H]7C[C@@]78C6=CC(=O)c6[nH]cc(C)c68)cc54)[nH]c13)CCN2C(N)=O [(+)-CC-1065, CC-1065]
L1210 [4]; L1210
  IC50: 0.02 nM
[2]
  delayed toxicity: exhibited the delayed toxicity
Solubility properties
  solubility: essentially insoluble in all solvents except DMSO or DMF

## NC(=O)N1CCc2c1ccc1[nH]c(C(=O)N3C[C@H]4C[C@@]45C3=CC(=O)c3ccccc35)cc21 [Compound 26, CBI-CDPI1]
[3]; (+)-enantiomer
  DNA alkylation selectivity (sequence): 5′-A/TA/TA/TA
[3]; ent-(−)-enantiomer
  DNA alkylation selectivity (sequence): 5′-A/TAA/TA/T

## NC(=O)N1CCc2c1ccc1[nH]c(C(=O)N3C[C@H]4CC45C3=CC(=O)c3ccccc35)nc21 (some centres unmarked) [Compound 64, N^2-[(3′-carbamoyl-1′,2′-dihydro-3′H-pyrrolo[3′,2′-e]benzimidazol-7′-yl)carbonyl]-1,2,9,9a-tetrahydro-cyclopropa-[c]-enz[e]-indol-4-one]
[3]
  DNA alkylation efficiency, fold less efficient than (+)-CBI-CDPI1 (26): approximately 100 ×
L1210 [4]; [6]
  IC50: 0.5 to 1 nM

## O=C(Nc1ccc2[nH]c(C(=O)N3CC4CC45C3=CC(=O)c3ccccc35)cc2c1)c1cc2ccccc2[nH]1 (centres unmarked) [Compound 27]
[3]; single high affinity site (5′-AATTA) of w794 DNA, 37° C., 0-5 d, 1×10^−5 M agent
  relative rate of DNA alkylation k(27)/k(4): 14
[3]; w794, 4° C. or 37° C., (+)-enantiomers
  DNA alkylation efficiency, fold more efficient than (+)-CPI-indole2 (4): 10 ×
L1210 [4]; (+)-enantiomer
  cytotoxic potency compared with (+)-CC-1065: comparable
  cytotoxic potency, fold greater than (+)-CPI-indole2 (4, U71,184): 4 ×
[2]
  delayed toxicity: lacked the delayed fatal toxicity
[5]
  in vivo antitumor activity: potent and efficacious

## Cc1c[nH]c2c1[C@@]13C[C@@H]1CN(C(=O)c1cc4c5c(ccc4[nH]1)N(C(=O)c1cc4c6c(ccc4[nH]1)N(C(N)=O)CC6)CC5)C3=CC2=O [(+)-CPI-CDPI2]
[2]
  delayed toxicity: exhibited the delayed toxicity
